Target: T1, kynurenine-3-hydroxylase (Rattus norvegicus, UniProt O88867)
T1 construct: Rat liver mitochondrial extract was used as enzymatic preparation for this assay; from tissue; host or cells: rat liver mitochondrial extract
Test: Kynurenine-3-hydroxylase assay in rat liver (radiometric, release of tritiated water, mitochondrial extract)
Format: biochemical
Conditions: 37°C, 30 min, 0.025 mM L-kynurenine, read-out: KYN-3-OH inhibition (IC50) Liver
Method: Kynurenine-3-hydroxylase assay in rat liver
The assay for kynurenine 3-hydroxylase was based on enzymatic synthesis of tritiated water during hydroxylation reaction. Radiolabelled water was quantified following selective adsorption of the isotopic substrate and its metabolites with active charcoal.
Rat liver mitochondrial extract was used as enzymatic preparation for this assay.
The assay for kynurenine 3-hydroxylase activity was carried out at 37°C for a time of 30 min. The reaction mixture of a total volume of […] was constituted of 44 mg of suspended extract, 100 mM Tris/Cl buffer pH 8.1, 10 mM EDTA, 100mM KCl, 0.8 mM NADPH, 0.025 mM L-kynurenine, 0.5 mCi L-(3,5-^3H)Kynurenine (10 Ci/mmol) and […] of different concentration of inhibitor solutions. After the incubation the reaction was terminated by the addition of 1 mL of 7.5% (w/v) activated charcoal, vortexed and centrifugated for 7 min.
A […] of supernatant was counted by scintillation spectroscopy in 5 ml of liquid scintillation.

T1 sequence (O88867 whole entry): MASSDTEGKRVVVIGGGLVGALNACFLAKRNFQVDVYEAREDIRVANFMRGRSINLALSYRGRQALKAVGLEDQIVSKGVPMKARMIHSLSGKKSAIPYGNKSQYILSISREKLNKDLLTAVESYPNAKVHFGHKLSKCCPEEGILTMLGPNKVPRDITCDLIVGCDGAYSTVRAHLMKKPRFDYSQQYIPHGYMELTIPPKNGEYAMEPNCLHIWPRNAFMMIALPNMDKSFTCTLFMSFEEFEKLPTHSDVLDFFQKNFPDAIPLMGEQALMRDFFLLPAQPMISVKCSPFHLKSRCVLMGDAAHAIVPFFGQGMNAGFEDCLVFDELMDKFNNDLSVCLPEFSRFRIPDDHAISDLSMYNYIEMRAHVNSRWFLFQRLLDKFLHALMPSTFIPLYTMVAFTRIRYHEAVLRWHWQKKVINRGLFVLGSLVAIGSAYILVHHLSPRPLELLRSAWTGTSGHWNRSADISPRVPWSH

SMILES	IC50 [µM]
Cc1c[nH]c2c1c(C(=O)O)nc1ccc(Cl)cc12 [FCE 29370, 8-chloro-3-methyl-1H-pyrrolo[3,2-c] quinoline-4-carboxylic acid]	61
O=C(O)c1nc2cc(Cl)ccc2c2[nH]cc(-c3ccccc3)c12 [FCE 29464, 7-chloro-3-phenyl-1H-pyrrolo[3,2-c] quinoline-4-carboxylic acid]	34
